Patent publication US8178699B2, “Modulators of CCR9 receptor and methods of use thereof” (Pfizer Inc., priority 2008, dated 2012)
pIC50: −log10 of the molar value. Counter-ions that a name gives are not always drawn.

target: T1, human CCR9 receptor (Homo sapiens, UniProt P51686); assay: CCR9 FLIPR/FlexStation Assay (inhibition of TECK induced calcium mobilization); assay type: cell-based; settings: CCR9 antagonist activity; TECK induced calcium mobilization in CCR9-Flp-CHO cells stably over expressing human CCR9; rhTECK at EC70; read-out: Binding IC50
T1 construct: expressed in transfected cells
T1 sequence (P51686 1-369): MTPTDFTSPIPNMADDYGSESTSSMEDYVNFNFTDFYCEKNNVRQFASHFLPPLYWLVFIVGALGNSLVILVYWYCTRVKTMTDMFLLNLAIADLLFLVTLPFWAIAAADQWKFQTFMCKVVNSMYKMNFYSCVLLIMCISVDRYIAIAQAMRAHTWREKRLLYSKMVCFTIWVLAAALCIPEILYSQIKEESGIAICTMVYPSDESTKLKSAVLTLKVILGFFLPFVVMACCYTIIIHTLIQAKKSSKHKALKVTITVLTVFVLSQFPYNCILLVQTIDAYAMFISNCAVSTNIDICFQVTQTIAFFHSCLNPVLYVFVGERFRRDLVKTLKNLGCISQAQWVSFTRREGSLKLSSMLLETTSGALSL
Text: Exemplary methods are described in US Publication Nos. US2004/0180892 and US2005/0049286, which are incorporated herein by reference. An exemplary assay for determining CCR9 antagonist activity of the compounds provided herein is CCR9 FLIPR/FlexStation Assay. In certain embodiments, the following protocol is used for the assay:
CCR9 FLIPR/FlexStation Assay Protocol
Calcium assay in FLIPR/FlexStation determines inhibitors of TECK induced calcium mobilization in CCR9-Flp-CHO cells that stably over express human CCR9 receptor. CCR9-Flp-CHO cells are seeded at 25,000 cells/well in a clear bottom, black wall 96-well plate (Greiner #655090) one day prior to assay. Cells are grown in a tissue culture incubator at 37° C. with 5% CO2 for 18 to 24 hours.
Wash buffer and dye loading buffer are prepared fresh each time the assay is performed. Wash buffer is prepared according to the following protocol: 20 ml 10×HBSS (Invitrogen Gibco #14065-056), 4 ml 1M HEPES (Sigma H3784), 174 ml sterile deionized water; then add 140 mg probenecid (Sigma P8761) dissolved in 2 ml 1M NaOH (Fisher S318) to solution and pH to 7.4. This wash buffer contains 1×HBSS, 20 mM HEPES and 2.5 mM probenecid. For one 96-well plate, dye loading buffer is prepared as following: 11 ml wash buffer, 44 μl Fluo-4/pluoronic acid mix (prepared from 22 μL aliquot of 2 mM Fluo-4 (Molecular Probes F14202, 1 mg/tube)+22 μl 20% pluronic F-127 (Molecular Probes P3000MP).
Cells are loaded with dye according to the protocol below:
1. Prepare wash buffer with 1×HBSS/HEPES at room temperature
2. Prepare loading buffer (keep in dark)
3. Aspirate culture media and wash with 100 μl wash buffer per well×1
4. Add 100 μl dye loading buffer to each well
5. Incubate at 37° C. for 30 minutes
6. Aspirate loading buffer
7. Wash with 100 μl wash buffer per well×3
8. Add 100 μl wash buffer per well
9. Incubate at 37° C. for 30 minutes
10. Assay plate with FLIPR or FlexStation
10 mM stock compounds in DMSO are prepared and diluted in DMSO to 1 mM. Compounds are diluted in wash buffer to make 8 point series dilutions containing same final concentration of DMSO (1%). Compounds are tested in duplicate wells for each point. Ligand rhTECK (R&D Systems 334-TK) was diluted to 6× of its EC70 with wash buffer. Appropriate amount of 6× ligand is added to each well. Data is analyzed using XLfit3 software to calculate IC50 value of antagonist activity for each compound.
CCR9 antagonist activity of exemplary compounds was determined using CCR9 FLIPR/FlexStation Assay as described in Section 4.4 and is provided in Table 1 below. The IC50 for the compounds are represented as follows: A≦100 nM; B>100-500 nM; C>500 nM.

| Structure (SMILES) | pIC50 |
| --- | --- |
| O=C(O)c1sccc1NS(=O)(=O)c1ccc(F)cc1C1CCCC1 [Example 35, 3-(2-cyclopentyl-4-fluorophenylsulfonamido)thiophene-2-carboxylic acid, disodium salt] | < 6.30 |
| O=C(O)c1sccc1NS(=O)(=O)c1ccc(C2CCCC2)cc1F [Example 36, 3-(4-cyclopentyl-2-fluorophenylsulfonamido)thiophene-2-carboxylic acid, disodium salt] | ≥ 7.00 |
| Cc1cc(C)cc(-c2cccc(S(=O)(=O)Nc3ccsc3C(=O)O)c2)c1 [Example 42, 3-(3′,5′-dimethylbiphenyl-3-ylsulfonamido)thiophene-2-carboxylic acid, disodium salt] | < 6.30 |
| CC(C)(C)c1ccc(S(=O)(=O)Nc2ccsc2C(=O)O)c(-c2ccncc2Cl)c1 [Example 45, 3-[4-tert-Butyl-2-(3-chloropyridin-4-yl)phenyl-sulfonamido]thiophene-2-carboxylic acid] | < 6.30 |
| CC(C)(C)c1ccc(S(=O)(=O)Nc2ccsc2C(=O)O)c(-c2ccccc2)c1 [Example 46, 3-(5-tert-butylbiphenyl-2-ylsulfonamido)thiophene-2-carboxylic acid, disodium salt] | < 6.30 |
| CC(C)(C)c1ccc(S(=O)(=O)Nc2ccsc2C(=O)O)c(N2CCCCC2)c1 [Example 47, 3-[4-tert-Butyl-2-(piperidin-1-yl)phenylsulfonamido]thiophene-2-carboxylic acid] | 6.30 to 7.00 |
| CC1(C)CCC(C)(C)c2cc(S(=O)(=O)Nc3ccsc3C(=O)O)ccc21 [Example 49, 3-(5,5,8,8-tetramethyl-5,6,7,8-tetrahydronaphthalene-2-sulfonamido)thiophene-2-carboxylic acid, disodium salt] | < 6.30 |
| O=C(O)c1sccc1NS(=O)(=O)c1ccc(OC(F)(F)F)cc1Cl [Example 50, 3-[2-chloro-4-(trifluoromethoxy)phenylsulfonamido]thiophene-2-carboxylic acid, disodium salt] | ≥ 7.00 |
| O=C(O)c1sccc1NS(=O)(=O)c1c(Cl)cc(C(F)(F)F)cc1Cl [Example 51, 3-[2,6-dichloro-4-(trifluoromethyl)phenylsulfonamido]thiophene-2-carboxylic acid, disodium salt] | < 6.30 |
| CC(C)(C)c1ccc(S(=O)(=O)Nc2ccsc2C(=O)O)c(/C=C/C2CC2)c1 [Example 52, 3-[4-tert-butyl-2-(2-cyclopropylvinyl)phenylsulfonamido]thiophene-2-carboxylic acid, disodium salt] | ≥ 7.00 |
| CC(C)(C)c1ccc(S(=O)(=O)Nc2ccsc2C(=O)O)c(-c2cccc(Cl)c2)c1 [Example 53, 3-(5-tert-butyl-3′-chlorobiphenyl-2-ylsulfonamido)thiophene-2-carboxylic acid, disodium salt] | < 6.30 |
| CC(C)(C)c1ccc(S(=O)(=O)Nc2ccsc2C(=O)O)c(-c2cccc(F)c2)c1 [Example 54, 3-(5-tert-butyl-3′-fluorobiphenyl-2-ylsulfonamido)thiophene-2-carboxylic acid, disodium salt] | 6.30 to 7.00 |
| COC/C=C/c1cc(C(C)(C)C)ccc1S(=O)(=O)Nc1ccsc1C(=O)O [Example 55, 3-[4-tert-butyl-2-(3-methoxyprop-1-enyl)phenylsulfonamido]thiophene-2-carboxylic acid, disodium salt] | 6.30 to 7.00 |
| CC(C)(C)c1ccc(S(=O)(=O)Nc2ccsc2C(=O)O)c(-c2ccoc2)c1 [Example 60, 3-[4-tert-butyl-2-(furan-3-yl)-phenylsulfonamido]thiophene-2-carboxylic acid, disodium salt] | 6.30 to 7.00 |
| C=Cc1cc(C(C)(C)C)ccc1S(=O)(=O)Nc1ccsc1C(=O)O [Example 61, 3-(4-tert-butyl-2-vinylphenylsulfonamido)thiophene-2-carboxylic acid, disodium salt] | ≥ 7.00 |
| Cc1cc(C(C)(C)C)cc(C)c1S(=O)(=O)Nc1ccsc1C(=O)O [Example 62, 3-(4-tert-butyl-2,6-dimethylphenylsulfonamido)thiophene-2-carboxylic acid, disodium salt] | < 6.30 |

More lines, now with the values ahead:

| pIC50 | Structure (SMILES) |
| --- | --- |
| < 6.30 | Cc1cc(S(=O)(=O)Nc2ccsc2C(=O)O)ccc1N1CCCC1 [Example 32, 3-(3-methyl-4-(pyrrolidin-1-yl)phenylsulfonamido)thiophene-2-carboxylic acid, disodium salt] |
| < 6.30 | O=C(O)c1sccc1NS(=O)(=O)c1ccc2c(c1)CCC2 [Example 33, 3-(2,3-dihydro-1H-indene-5-sulfonamido)thiophene-2-carboxylic acid, disodium salt] |
| 6.30 to 7.00 | O=C(O)c1sccc1NS(=O)(=O)c1ccc(C2CCCCC2)cc1 [Example 34, 3-(4-cyclohexylphenylsulfonamido)thiophene-2-carboxylic acid, disodium salt] |
| 6.30 to 7.00 | CC(C)c1ccc(S(=O)(=O)Nc2ccsc2C(=O)O)cc1 [Example 37, 3-[4-(iso-propylphenyl)sulfonamido]thiophene-2-carboxylic acid, disodium salt] |
| ≥ 7.00 | CCCCc1ccc(S(=O)(=O)Nc2ccsc2C(=O)O)cc1 [Example 38, 3-[4-(n-butylphenyl)sulfonamide]thiophene-2-carboxylic acid, disodium salt] |
| < 6.30 | CCc1ccccc1-c1cccc(S(=O)(=O)Nc2ccsc2C(=O)O)c1 [Example 39, 3-(2′-ethylbiphenyl-3-ylsulfonamido)thiophene-2-carboxylic acid, disodium salt] |
| < 6.30 | O=C(O)c1sccc1NS(=O)(=O)c1cccc(-c2ccccc2)c1 [Example 40, 3-(biphenyl-3-ylsulfonamido)thiophene-2-carboxylic acid, disodium salt] |
| < 6.30 | Cc1cccc(C)c1-c1cccc(S(=O)(=O)Nc2ccsc2C(=O)O)c1 [Example 41, 3-(2′,6′-dimethylbiphenyl-3-ylsulfonamido)thiophene-2-carboxylic acid, disodium salt] |
| < 6.30 | CC(C)c1ccccc1-c1cccc(S(=O)(=O)Nc2ccsc2C(=O)O)c1 [Example 43, 3-(2′-isopropylbiphenyl-3-ylsulfonamido)thiophene-2-carboxylic acid, disodium salt] |
| < 6.30 | CCCOc1ccccc1-c1cccc(S(=O)(=O)Nc2ccsc2C(=O)O)c1 [Example 44, 3-(2′-propoxybiphenyl-3-ylsulfonamido)thiophene-2-carboxylic acid, disodium salt] |
| ≥ 7.00 | CCc1cc(C(C)(C)C)ccc1S(=O)(=O)Nc1ccsc1C(=O)O [Example 48, 3-(4-tert-butyl-2-ethylphenylsulfonamido)thiophene-2-carboxylic acid, disodium salt] |
| ≥ 7.00 | CCCc1cc(C(C)(C)C)ccc1S(=O)(=O)Nc1ccsc1C(=O)O [Example 56, 3-(4-tert-butyl-2-propylphenylsulfonamido)thiophene-2-carboxylic acid, disodium salt] |
| ≥ 7.00 | CC(C)(C)c1ccc(S(=O)(=O)Nc2ccsc2C(=O)O)c(CCC2CC2)c1 [Example 57, 3-[4-tert-Butyl-2-(2-cyclopropylethyl)phenylsulfonamido]thiophene-2-carboxylic acid, disodium salt] |
| 6.30 to 7.00 | CCCCCc1cc(C(C)(C)C)ccc1S(=O)(=O)Nc1ccsc1C(=O)O [Example 58, 3-(4-tert-butyl-2-pentylphenylsulfonamido)thiophene-2-carboxylic acid, disodium salt] |
| 6.30 to 7.00 | COCCCc1cc(C(C)(C)C)ccc1S(=O)(=O)Nc1ccsc1C(=O)O [Example 59, 3-[4-tert-butyl-2-(3-methoxypropyl)phenylsulfonamido]thiophene-2-carboxylic acid, disodium salt] |
